This note sets out measurements from patent publication US7998978B2 (Pfizer Inc., priority 2006, dated 2011).

In this assay the target is T1, JNK1α1 (Homo sapiens, UniProt P45983).
T1 construct: catalytic domain containing amino acids 1-364 and N-terminal hexahistidine tag; hexahistidine (His6) (N); made in house; host or cells: E. coli BL21 (DE3)
In words: Coupled spectrophotometric (PK/LDH) JNK1α1 assay: % inhibition and Ki determination. Type of assay: biochemical. The following applies: for Ki: JNK-1; for inhibition at 1 µM: read-out: % Inhibition JNK-1. In outline:
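Initial rates were taken from the absorbance decrease at 340 nm at 30° C. Ki was fitted with a tight-binding model over 11 concentrations (top 100 μM); single-point inhibition was tested at 1 or 10 μM.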

T1 sequence (P45983 1-364): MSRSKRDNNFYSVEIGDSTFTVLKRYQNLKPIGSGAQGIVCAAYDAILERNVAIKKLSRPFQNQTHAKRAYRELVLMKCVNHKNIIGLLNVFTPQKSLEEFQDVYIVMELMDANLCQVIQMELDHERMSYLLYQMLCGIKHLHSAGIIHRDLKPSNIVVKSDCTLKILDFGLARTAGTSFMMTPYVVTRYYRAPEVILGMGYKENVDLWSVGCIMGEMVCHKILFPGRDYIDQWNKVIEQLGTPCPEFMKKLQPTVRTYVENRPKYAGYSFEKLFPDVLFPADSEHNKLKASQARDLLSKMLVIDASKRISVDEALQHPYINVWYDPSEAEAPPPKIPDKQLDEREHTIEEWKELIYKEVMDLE

In the case of `CC[C@@H](CO)NC(=O)c1cccc2cnc(N[C@H]3CC[C@H](O)CC3)nc12` [Example 441, 2-[(trans-4-hydroxycyclohexyl)amino]-N-[(1S)-1-(hydroxymethyl)propyl]quinazoline-8-carboxamide], the Ki (as a rule, the dissociation constant of the complex between target and ligand, obtained from inhibition or displacement) came to 57 nM.

The compound `CCC(CO)NC(=O)c1cccc2cnc(N[C@H]3CC[C@H](O)CC3)nc12` (stereo partly drawn) [Example 442, 2-[(trans-4-hydroxycyclohexyl)amino]-N-[1-(hydroxymethyl)propyl]quinazoline-8-carboxamide] showed a Ki of 83 nM.

Turning to `O=C(NCC(O)c1ccccc1)c1cccc2cnc(N[C@H]3CC[C@H](O)CC3)nc12` (stereo partly drawn) [Example 443, 2-[(trans-4-hydroxycyclohexyl)amino]-N-(2-hydroxy-2-phenylethyl)quinazoline-8-carboxamide], the inhibition constant (Ki) is 104 nM.

The compound `O=C(NCC1(O)CCOc2ccccc21)c1cccc2cnc(N[C@H]3CC[C@H](O)CC3)nc12` (stereo partly drawn) [Example 444, 2-[(trans-4-hydroxycyclohexyl)amino]-N-[(4-hydroxy-3,4-dihydro-2H-chromen-4-yl)methyl]quinazoline-8-carboxamide] came in with a Ki of 106 nM.

For `CC(C)[C@@H](CO)NC(=O)c1cccc2cnc(N[C@H]3CC[C@H](O)CC3)nc12` [Example 445, 2-[(trans-4-hydroxycyclohexyl)amino]-N-[(1S)-1-(hydroxymethyl)-2-methylpropyl]quinazoline-8-carboxamide], the affinity corresponds to a Ki of 110 nM.

`O=C(N[C@@H]1CCCC[C@@H]1CO)c1cccc2cnc(N[C@H]3CC[C@H](O)CC3)nc12` [Example 446, 2-[(trans-4-hydroxycyclohexyl)amino]-N-[(1R,2S)-2-(hydroxymethyl)cyclohexyl]quinazoline-8-carboxamide]: the Ki amounted to 112 nM.

In the case of `O=C(NC1CC1)c1cccc2cnc(N[C@H]3CC[C@H](O)CC3)nc12` [Example 447, N-cyclopropyl-2-[(trans-4-hydroxycyclohexyl)amino]quinazoline-8-carboxamide], the affinity corresponds to a Ki of 119 nM.

`O=C(NC1CCN(c2cccnn2)CC1)c1cccc2cnc(N[C@H]3CC[C@H](O)CC3)nc12` [Example 449, 2-[(trans-4-hydroxycyclohexyl)amino]-N-(1-pyridazin-3-ylpiperidin-4-yl)quinazoline-8-carboxamide] registered a Ki of 138 nM.

Regarding `CC(C)C(CO)NC(=O)c1cccc2cnc(N[C@H]3CC[C@H](O)CC3)nc12` (stereo partly drawn) [Example 450, 2-[(trans-4-hydroxycyclohexyl)amino]-N-[1-(hydroxymethyl)-2-methylpropyl]quinazoline-8-carboxamide], the affinity corresponds to a Ki of 144 nM.

`O=C(NCCCO)c1cccc2cnc(N[C@H]3CC[C@H](O)CC3)nc12` [Example 451, 2-[(trans-4-hydroxycyclohexyl)amino]-N-(3-hydroxypropyl)quinazoline-8-carboxamide]: affinity was put at a Ki of 166 nM.

`Cc1n[nH]c(C)c1CNC(=O)c1cccc2cnc(N[C@H]3CC[C@H](O)CC3)nc12` [Example 452, N-[(3,5-dimethyl-1H-pyrazol-4-yl)methyl]-2-[(trans-4-hydroxycyclohexyl)amino]quinazoline-8-carboxamide]: the Ki amounted to 166 nM.

In the case of `CC1(CNC(=O)c2cccc3cnc(N[C@H]4CC[C@H](O)CC4)nc23)COC1` [Example 453], the Ki was 170 nM.

As for `O=C(NC1(CO)CCCC1)c1cccc2cnc(N[C@H]3CC[C@H](O)CC3)nc12` [Example 454, 2-[(trans-4-hydroxycyclohexyl)amino]-N-[1-(hydroxymethyl)cyclopentyl]quinazoline-8-carboxamide], the affinity corresponds to a Ki of 221 nM.

Compound `O=C(NC1(c2ccncc2)CC1)c1cccc2cnc(N[C@H]3CC[C@H](O)CC3)nc12` [Example 455, 2-[(trans-4-hydroxycyclohexyl)amino]-N-(1-pyridin-4-ylcyclopropyl)quinazoline-8-carboxamide] had a Ki of 235 nM.

`O=C(NCC(O)c1ccc(F)c(F)c1)c1cccc2cnc(N[C@H]3CC[C@H](O)CC3)nc12` (stereo partly drawn) [Example 456, N-[2-(3,4-difluorophenyl)-2-hydroxyethyl]-2-[(trans-4-hydroxycyclohexyl)amino]quinazoline-8-carboxamide] returned a Ki of 254 nM.

Consider `O=C(N[C@H]1CC[C@H](CO)CC1)c1cccc2cnc(N[C@H]3CC[C@H](O)CC3)nc12` [Example 457, 2-[(trans-4-hydroxycyclohexyl)amino]-N-[trans-4-(hydroxymethyl)cyclohexyl]quinazoline-8-carboxamide], for which the affinity, expressed as Ki, was 275 nM.

Compound `CC[C@H](CO)NC(=O)c1cccc2cnc(N[C@H]3CC[C@H](O)CC3)nc12` [Example 458, 2-[(trans-4-hydroxycyclohexyl)amino]-N-[(1R)-1-(hydroxymethyl)propyl]quinazoline-8-carboxamide] displayed a Ki of 374 nM.

Take `O=C(N[C@@H]1Cc2ccccc2[C@H]1O)c1cccc2cnc(N[C@H]3CC[C@H](O)CC3)nc12` [Example 459, 2-[(trans-4-hydroxycyclohexyl)amino]-N-[(1R,2R)-1-hydroxy-2,3-dihydro-1H-inden-2-yl]quinazoline-8-carboxamide]: the Ki was found to be 399 nM.

Consider `O=C(NCC1(O)CCCC1)c1cccc2cnc(N[C@H]3CC[C@H](O)CC3)nc12` [Example 460, 2-[(trans-4-hydroxycyclohexyl)amino]-N-[(1-hydroxycyclopentyl)methyl]quinazoline-8-carboxamide], for which the Ki turned out to be 400 nM.

The compound `CCCNC(=O)c1cccc2cnc(N[C@H]3CC[C@H](O)CC3)nc12` [Example 461, 2-[(trans-4-hydroxycyclohexyl)amino]-N-propylquinazoline-8-carboxamide] yielded an inhibition constant Ki of 451 nM.

`O=C(NC1(c2ccccn2)CC1)c1cccc2cnc(N[C@H]3CC[C@H](O)CC3)nc12` [Example 462, 2-[(trans-4-hydroxycyclohexyl)amino]-N-(1-pyridin-2-ylcyclopropyl)quinazoline-8-carboxamide]: the Ki was 471 nM.

As to `O=C(N[C@H]1c2ccccc2C[C@H]1O)c1cccc2cnc(N[C@H]3CC[C@H](O)CC3)nc12` [Example 463, 2-[(trans-4-hydroxycyclohexyl)amino]-N-[(1S,2R)-2-hydroxy-2,3-dihydro-1H-inden-1-yl]quinazoline-8-carboxamide], the affinity, expressed as Ki, was 486 nM.

Regarding `O=C(NC1(c2cccnc2)CC1)c1cccc2cnc(N[C@H]3CC[C@H](O)CC3)nc12` [Example 464, 2-[(trans-4-hydroxycyclohexyl)amino]-N-(1-pyridin-3-ylcyclopropyl)quinazoline-8-carboxamide], the affinity corresponds to a Ki of 685 nM.

With `Cn1cncc1CNC(=O)c1cccc2cnc(N[C@H]3CC[C@H](O)CC3)nc12` [Example 465, 2-[(trans-4-hydroxycyclohexyl)amino]-N-[(1-methyl-1H-imidazol-5-yl)methyl]quinazoline-8-carboxamide], the Ki was 782 nM.

Compound `O=C(N[C@H]1CC[C@@H](CO)CC1)c1cccc2cnc(N[C@H]3CC[C@H](O)CC3)nc12` [Example 466, 2-[(trans-4-hydroxycyclohexyl)amino]-N-[cis-4-(hydroxymethyl)cyclohexyl]quinazoline-8-carboxamide] gave a Ki of 962 nM.

`CNC(=O)N1CCC(NC(=O)c2cccc3cnc(N[C@H]4CC[C@H](O)CC4)nc23)CC1` [Example 467, 2-[(trans-4-hydroxycyclohexyl)amino]-N-{1-[(methylamino)carbonyl]piperidin-4-yl}quinazoline-8-carboxamide]: the affinity corresponds to a Ki of 2050 nM.

Take `O=C(NCc1ccccn1)c1cccc2cnc(N[C@H]3CC[C@H](O)CC3)nc12` [Example 468, 2-[(trans-4-hydroxycyclohexyl)amino]-N-(pyridin-2-ylmethyl)quinazoline-8-carboxamide]: the inhibition (commonly the drop in the measured response relative to a control, in per cent) at 1 µM came to 15%.

Consider `O=C(NCCc1ccccn1)c1cccc2cnc(N[C@H]3CC[C@H](O)CC3)nc12` [Example 469, 2-[(trans-4-hydroxycyclohexyl)amino]-N-(2-pyridin-2-ylethyl)quinazoline-8-carboxamide], for which the inhibition at 1 µM came to 10%.

Turning to `O=C(N[C@H](CO)c1ccccc1)c1cccc2cnc(N[C@H]3CC[C@H](O)CC3)nc12` [Example 470, 2-[(trans-4-hydroxycyclohexyl)amino]-N-[(1S)-2-hydroxy-1-phenylethyl]quinazoline-8-carboxamide], the inhibition at 1 µM stood at 27%.

Consider `O=C(N[C@@H](CO)c1ccccc1)c1cccc2cnc(N[C@H]3CC[C@H](O)CC3)nc12` [Example 471, 2-[(trans-4-hydroxycyclohexyl)amino]-N-[(1R)-2-hydroxy-1-phenylethyl]quinazoline-8-carboxamide], for which the inhibition at 1 µM turned out to be 19%.

As to `C[C@@H](NC(=O)c1cccc2cnc(N[C@H]3CC[C@H](O)CC3)nc12)[C@@H](O)c1ccccc1` [Example 472, 2-[(trans-4-hydroxycyclohexyl)amino]-N-[(1R,2S)-2-hydroxy-1-methyl-2-phenylethyl]quinazoline-8-carboxamide], the inhibition at 1 µM came out at 25%.

`O=C(NCc1ccncc1)c1cccc2cnc(N[C@H]3CC[C@H](O)CC3)nc12` [Example 473, 2-[(trans-4-hydroxycyclohexyl)amino]-N-(pyridin-4-ylmethyl)quinazoline-8-carboxamide]: the inhibition at 1 µM was 34%.

Consider `O=C(NC[C@@H](O)c1ccccc1)c1cccc2cnc(N[C@H]3CC[C@H](O)CC3)nc12` [Example 474, 2-[(trans-4-hydroxycyclohexyl)amino]-N-[(2S)-2-hydroxy-2-phenylethyl]quinazoline-8-carboxamide], for which the inhibition at 1 µM is 37%.

Turning to `Cc1cccc(CC(C)NC(=O)c2cccc3cnc(N[C@H]4CC[C@H](O)CC4)nc23)n1` (stereo partly drawn) [Example 475, 2-[(trans-4-hydroxycyclohexyl)amino]-N-[1-methyl-2-(6-methylpyridin-2-yl)ethyl]quinazoline-8-carboxamide], the inhibition at 1 µM was 11%.

With `O=C(NCCN1CCNC1=O)c1cccc2cnc(N[C@H]3CC[C@H](O)CC3)nc12` [Example 476, 2-[(trans-4-hydroxycyclohexyl)amino]-N-[2-(2-oxoimidazolidin-1-yl)ethyl]quinazoline-8-carboxamide], the inhibition at 1 µM came out at 10%.
